Here are results for five compounds from ChEMBL document CHEMBL1125551, “Conformationally restricted analogues of disoxaril: a comparison of the activity against human rhinovirus types 14 and 1A” (1992).

One test concerns Human rhinovirus 1A. In words: In vitro determined against HRV-1A in a plaque reduction assay. It counts as functional. In general terms: Plaque reduction counts the foci of infection that form in a cell layer.
Another test has as its system rhinovirus B14. In words: In vitro determined against HRV-14 in a plaque reduction assay. The format is functional, human rhinovirus type 14. The conditions noted are these: Rhinovirus B.

≈ marks a conversion by molar mass, not a printed value. Bounds are passed on as bounds.

Turning to `Cc1cc(CCCCCOc2c(Cl)cc(C3=NCCO3)cc2Cl)on1` [WIN-54954], the MIC in the test on Human rhinovirus 1A turned out to be 2.5 µM (≈ 0.958 µg/mL); in the test with rhinovirus B14 it was 1.2 µM (≈ 0.46 µg/mL).
On the same counts, the results for `Cc1cc(CC/C=C/COc2c(Cl)cc(C3=NCCO3)cc2Cl)on1` are 2.25 µM (≈ 0.858 µg/mL) and 0.44 µM (≈ 0.168 µg/mL).
For the compound `Cc1cc(CC/C=C\COc2c(Cl)cc(C3=NCCO3)cc2Cl)on1`, the MIC against Human rhinovirus 1A was found to be 4.72 µM (≈ 1.8 µg/mL); in the test with rhinovirus B14, 3.9 µM (≈ 1.49 µg/mL).
As for `Cc1cc(CCC#CCOc2c(Cl)cc(C3=NCCO3)cc2Cl)on1`, the values for the MIC with Human rhinovirus 1A and with rhinovirus B14 were above 8.2 µM and 0.26 µM (≈ 0.0986 µg/mL), respectively.
The matching figures for `Cc1cc(CCCOc2c(Cl)cc(C3=NCCO3)cc2Cl)on1`: 0.46 µM (≈ 0.163 µg/mL) and 8.14 µM (≈ 2.89 µg/mL).
